Results on 16 molecules are retold here after US11655216B2 (priority 2016, dated 2023).

SMILES strings stand for the structures.

Assay [1] deals with T1, glutathione-S-transferase (GST) tagged LXRbeta LBD (ligand binding domain) (Homo sapiens, UniProt P55055).
T1 construct: purchased Invitrogen pv4658
T1 sequence (P55055 222-460 limits assumed): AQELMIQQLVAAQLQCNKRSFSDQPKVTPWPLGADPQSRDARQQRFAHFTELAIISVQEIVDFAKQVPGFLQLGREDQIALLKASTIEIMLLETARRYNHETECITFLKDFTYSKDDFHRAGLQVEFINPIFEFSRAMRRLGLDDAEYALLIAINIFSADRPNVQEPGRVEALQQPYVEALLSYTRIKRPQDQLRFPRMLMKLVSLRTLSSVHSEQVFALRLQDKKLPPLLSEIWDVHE
Description: LanthaScreen TR-FRET Liver X Receptor Coactivator Assay, LXR beta. The format is biochemical. The note with it: for EC50: LXR beta IP, potency (Inflection Point), compound-induced co-activator recruitment, TR-FRET; for Emax: read-out: LXR beta actiivty at max dose, efficacy (% Emax) in relation to reference dual agonist T0901317. In outline:
(§1)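 TR-FRET coactivator recruitment read-out: compounds first received either LBD, followed by a mix of terbium-labelled anti-GST antibody and fluorescein coactivator peptide. Signal measured by time-resolved FRET once plates had incubated at room temperature.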

For assay [2], the target named is T2, glutathione-S-transferase (GST) tagged LXRalpha LBD (ligand binding domain) (Homo sapiens, UniProt Q13133).
T2 construct: purchased Invitrogen pv4655
T2 sequence (Q13133 209-447 limits assumed): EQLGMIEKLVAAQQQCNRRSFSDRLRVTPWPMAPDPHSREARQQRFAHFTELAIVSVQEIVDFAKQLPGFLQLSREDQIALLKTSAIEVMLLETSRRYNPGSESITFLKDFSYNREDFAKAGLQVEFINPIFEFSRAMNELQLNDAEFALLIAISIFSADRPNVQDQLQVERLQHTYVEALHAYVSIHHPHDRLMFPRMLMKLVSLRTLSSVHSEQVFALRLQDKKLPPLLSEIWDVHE
Kind of assay: biochemical. The note with it: for EC50: LXR alpha IP; for EC50 / LXR alpha IP: potency (Inflection Point), compound-induced co-activator recruitment, TR-FRET; for Emax: read-out: LXR alpha actiivty at max dose, efficacy (% Emax) in relation to reference dual agonist T0901317. In outline:
as §1

The mark [3] stands for this setting: efficacy (% Emax) in relation to reference dual agonist T0901317.

Take `CN(C)C(=O)c1ccc(OCCCCC2CCN(S(=O)(=O)c3c(Cl)cccc3Cl)CC2)nc1Cl` [Example 7-2, 2-chloro-6-(4-(1-(2,6-dichlorophenylsulfonyl)piperidin-4-yl)butoxy)-N,N-dimethylnicotinamide]: in assay [1], the EC50 amounted to 23 nM and the maximum response (Emax) was 122%. In assay [2], the EC50 was determined as 429 nM and the Emax is 80%.
Take `CN(C)C(=O)c1ccc(O[C@H]2C[C@@H](CC3CCN(C(=O)[C@](O)(c4cccc(OC5CC5)c4)C(F)(F)F)CC3)C2)cc1Cl` (single isomer, unassigned) [Example 37-2, 2-chloro-4-((1R,3s)-3-((1-((R or S)-2-(3-cyclopropoxyphenyl)-3,3,3-trifluoro-2-hydroxypropanoyl)piperidin-4-yl)methyl)cyclobutoxy)-N,N-dimethylbenzamide]: in assay [1], the concentration giving a half-maximal response (EC50) worked out at 40 nM and the maximal effect (Emax) is 109%. In assay [2], the “LXR alpha IP” value is “No IP” and the Emax is 2%.
For `C[C@@H](CCC1CCN(C(=O)[C@](O)(c2cc(F)cc(F)c2)C(F)(F)F)CC1)COc1ccc(C(=O)N(C)C)c(Cl)c1` (single isomer, unassigned) [Example 23-3, 2-chloro-4-((S or R)-4-(1-((R or S)-2-(3,5-difluorophenyl)-3,3,3-trifluoro-2-hydroxypropanoyl)piperidin-4-yl)-2-methylbutoxy)-N,N-dimethylbenzamide], the values for the EC50 in assay [1] and in assay [2] were 12 nM and 150 nM, respectively. Besides, the maximal effect (Emax) in assay [1] is 89%; in assay [2], 42%.
Take `CN(C)C(=O)c1ccc(OCC[C@@H]2C[C@@H]2C2CCN(C(=O)c3c(F)cccc3F)CC2)cc1Cl` (single isomer, unassigned) [Example 10-2, 2-chloro-4-(2-((1S,2R or 1R, 2S)-2-(1-(2,6-difluorobenzoyl)piperidin-4-yl)cyclopropyl)ethoxy)-N,N-dimethylbenzamide]: in assay [1], the EC50 was 106 nM and the maximal response (Emax) amounted to 69%. In addition, in assay [2], the half-maximal effective concentration (EC50) was found to be 1510 nM and the Emax came to 14%.
With `CCOC(=O)N1CCN(C(=O)c2ccc(OCCCCC3CCN(C(=O)C(O)(c4ccccc4)C(F)(F)F)CC3)nc2Cl)CC1` (stereo not drawn) [Example 3-18, ethyl 4-(2-chloro-6-(4-(1-(3,3,3-trifluoro-2-hydroxy-2-phenylpropanoyl)piperidin-4-yl)butoxy)nicotinoyl) piperazine-l-carboxylate], in assay [1], the midpoint of the response, the EC50, lay at 17 nM and the maximal response (Emax) stood at 75%. In addition, in assay [2], the EC50 came to 498 nM and the Emax stood at 33%.
The like results for `CN(C)C(=O)c1ccc(OCCCCC2CCN(C(=O)C(O)(c3cccc(F)c3)C(F)(F)F)CC2)cc1Cl` (single isomer, unassigned) [Example 3-4, (R or S)-2-chloro-N,N-dimethyl-4-(4-(1-(3,3,3-trifluoro-2-(3-fluorophenyl)-2-hydroxypropanoyl)piperidin-4-yl)butoxy)benzamide] were, in that order, 7 nM, 73%, 126 nM and 41%.
Take `CCc1cccc(C(O)(C(=O)N2CCC(CCCCOc3ccc(C(=O)N(C)C)c(Cl)c3)CC2)C(F)(F)F)c1` (single isomer, unassigned) [Example 3-12, (R or S)-2-chloro-4-(4-(1-(2-(3-ethylphenyl)-3,3,3-trifluoro-2-hydroxypropanoyl)piperidin-4-yl)butoxy)-N,N-dimethylbenzamide]: in assay [1], it took 16 nM to reach a half-maximal effect (EC50) and the Emax turned out to be 76%. For the same molecule, in assay [2], the “LXR alpha IP” value is listed as “No IP” and the maximal response (Emax) is 15%.
For `CN(C)C(=O)c1ccc(OCCC2CC23CCN(C(=O)Cc2cccc(Br)c2)CC3)cc1Cl` (single isomer, unassigned) [Example 12-3, (R or S)-4-(2-(6-(2-(3-bromophenyl)acetyl)-6-azaspiro[2.5]octan-1-yl)ethoxy)-2-chloro-N,N-dimethylbenzamide] the same measures were 153 nM, 28%, “No IP” and 1%.
In the case of `CC(C)(C(=O)N1CCC2(CC1)CC(CCOc1ccc(C(=O)N3CCCC3)c(Cl)c1)C2)c1ccccc1` [Example 34-3, 1-(2-(2-(3-chloro-4-(pyrrolidine-1-carbonyl)phenoxy)ethyl)-7-azaspiro[3.5]nonan-7-yl)-2-methyl-2-phenylpropan-1-one], the results for the EC50 in assay [1] and in assay [2] were 70 nM and 292 nM, respectively. The Emax worked out at 65% in assay [1] and 13% in assay [2].
For the molecule `CN(C)C(=O)c1ccc(OCCC2CC23CCN(C(=O)C2(c4cncnc4)CCC2)CC3)cc1Cl` (single isomer, unassigned) [Example 12-19, (S or R)-2-chloro-N,N-dimethyl-4-(2-(6-(1-(pyrimidin-5-yl)cyclobutanecarbonyl)-6-azaspiro[2.5]octan-1-yl)ethoxy)benzamide], in assay [1], the EC50 was 426 nM and the maximum response (Emax) turned out to be 12%. Besides, in assay [2], the “LXR alpha IP” value was “No IP” and the Emax stood at 14%.
`CC(C)C(O)(C(=O)N1CCC(C2CC2COc2ccc(C(=O)N(C)C)c(Cl)c2)CC1)C(F)(F)F` (single isomer, unassigned) [Example 32-2, 2-chloro-4-(((1R,2S or 1S,2R)-2-(1-((R or S)-2-hydroxy-3-methyl-2-(trifluoromethyl)butanoyl)piperidin-4-yl)cyclopropyl)methoxy)-N,N-dimethylbenzamide] registered an EC50 in assay [1] of 206 nM. For the same molecule, in assay [1] (setting [3]), the “LXR beta actiivty at max dose” value is given as 73%. Moreover, the “LXR alpha actiivty at max dose” value in assay [2] (setting [3]) amounted to 8%. The “LXR alpha IP” value in assay [2] is reported as “No IP”.
Regarding `CN(C)C(=O)c1ccc(OCCCCC2CCN(C(=O)C(O)(c3ccccc3)C(F)(F)F)CC2)cc1Cl` (single isomer, unassigned) [Example 3-8, 2-chloro-N,N-dimethyl-4-(4-(1-(3,3,3-trifluoro-2-hydroxy-2-phenylpropanoyl)piperidin-4-yl)butoxy)benzamide], in assay [1], it took 5 nM to reach a half-maximal effect (EC50) and the maximal effect (Emax) stood at 85%. For the same molecule, in assay [2], it took 173 nM to reach a half-maximal effect (EC50) and the Emax worked out at 30%.
The like results for `CNC(=O)c1ccc(OCC[C@@H]2C[C@@H]2C2CCN(C(=O)[C@](O)(c3cccc(OC)c3)C(F)(F)F)CC2)cc1Cl` (single isomer, unassigned) [Example 10-5, 2-chloro-N-methyl-4-(2-((1S,2R or 1R, 2S)-2-(1-((R or S)-3,3,3-trifluoro-2-hydroxy-2-(3-methoxyphenyl)propanoyl)piperidin-4-yl)cyclopropyl)ethoxy) benzamide] were, in that order, 7 nM, 75%, 209 nM and 13%.
For `Cc1nnc(C(C)(C)C(=O)N2CCC3(CC2)CC3CCOc2ccc(C(=O)N(C)C)c(Cl)c2)s1` (single isomer, unassigned) [Example 12-2, (R or S)-2-chloro-N,N-dimethyl-4-(2-(6-(2-methyl-2-(5-methyl-1,3,4-thiadiazol-2-yl)propanoyl)-6-azaspiro[2.5]octan-1-yl)ethoxy)benzamide] the same measures were 661 nM, 57%, 10500 nM and 52%.
For `CNC(=O)c1ccc(OCCCCC2CCN(C(=O)[C@](O)(c3cccc(OC)c3)C(F)(F)F)CC2)cc1Cl` (single isomer, unassigned) [Example 8-18, (R or S)-2-chloro-N-methyl-4-(4-(1-(3,3,3-trifluoro-2-hydroxy-2-(3-methoxyphenyl)propanoyl)piperidin-4-yl)butoxy) benzamide] the same measures were 14 nM, 91%, 742 nM and 31%.
With `COc1cccc([C@@](O)(C(=O)N2CCC(C[C@H]3C[C@@H](Oc4ccc(C(=O)N(C)C)c(Cl)c4)C3)CC2)C(F)F)c1` (single isomer, unassigned) [Example 37-8, 2-chloro-4-((1R,3s)-3-((1-((R or S)-3,3-difluoro-2-hydroxy-2-(3-methoxyphenyl)propanoyl)piperidin-4-yl)methyl)cyclobutoxy)-N,N-dimethylbenzamide], in assay [1], the half-maximal effective concentration (EC50) was found to be 354 nM and the maximum response (Emax) was 51%. Further, in assay [2], the “LXR alpha IP” value is “No IP” and the maximal effect (Emax) was 0%.
